Patent publication US20240101589A1, “INHIBITORS OF METTL3” (Strom Therapeutics Limited, priority 2020, published 2024)

Assays:
METTL3/14 = METTL3/14 (Homo sapiens (Human), UniProt Q86U44); test: METTL3/14 methyltransferase assay (RapidFire mass spectrometry, RFMS); format: biochemical; conditions: 5 nM METTL3/14, 0.2 μM RNA substrate, 0.5 μM SAM, 60 minutes at room temperature
Experimental: The enzymatic assay was established to determine IC50 values for inhibition of RNA methyltransferase activity. The enzyme used was full-length his-tagged METTL3 co-expressed with full length FLAG-tagged METTL14 in a baculovirus expression system. Enzymatic reactions were performed at room temperature in 384-well plates using a final reaction volume of 20 μL containing 20 mM TrisCl pH 7.6, 1 mM DTT, 0.01% Tween-20. 5 nM final concentration of METTL3/14 was pre-incubated with various compound concentrations for 10 minutes, followed by addition of 0.2 μM final concentration synthetic RNA substrate (5′P-[…]-3′) and 0.5 μM final concentration S-adenosyl-methionine (SAM). The reaction was incubated for a further 60 minutes at room temperature, and then quenched by the addition of 40 μL 7.5% TCA with two internal product standards (D4-SAH and 13C10-SAH). After termination, plates were sealed, centrifuged and stored at 4° C. until analysis.
RNA methyltransferase activity was measured label free using the RapidFire™ mass spectrometry (RF/MS) platform. Stopped and stable assay plates were analyzed on the Agilent RF300 integrated autosampler/solid-phase extraction (SPE) system coupled to an ABSciex 4000 mass spectrometer for the generation of the product S-adenosyl homocysteine (SAH) and normalized to the ratio of signal of the two internal product standards, respectively. Solvent A was water containing 0.1% (v/v) TCA. Solvent B was acetonitrile/0.1% ammonium acetate (8:2, v/v). More specifically, plates were centrifuged at 4350 rpm for 10 min, samples were aspirated under vacuum for 600 ms, then loaded onto a C18 solid-phase extraction cartridge and washed for 3 s with solvent A at a flow rate of 1.5 mL/min. Retained product and internal standards were eluted with solvent B at a flow rate of 1 mL/min for 3 s and finally the cartridge was re-equilibrated with solvent A for 500 ms. The mass transition for the product (SAH) was 384.9/135.9 Da. Transitions of the two internal product standards (IS1: D4-SAH and IS2: 13C10-SAH) were 389.1/135.8 Da and 395.0/134.2 Da, respectively. Ratios of SAH/IS1 and SAH/IS2 were used for normalization of matrix effects. IC50 values were calculated based on dilution series of individual compounds. Potency of a compound was measured at varied inhibitor concentrations and normalized to control wells without RNA substrate and without inhibition (DMSO only).

Caov-3 cells = test: Caov3 cell proliferation CTG; format: cell-based; conditions: Homo sapiens, treated for 120 hours, CellTiter-Glo
Experimental: Cell treatment and cell growth assessment: 18 hours post-seeding in white 384-Viewplate (6007480, PerkinElmer) at 1500 cells/well, Caov3 cells were treated for 120 hours with compounds inhibiting the METTL3/14 activity (10 serial semi-log dilutions, 30 μM as top concentration). Upon treatment, Coav-3 cells were incubated for 10 min at RT with the CellTiter-Glo reagent (G7571, Promega). Measurement of the luminescence signal was performed on a microplate reader (Ensight, PerkinElmer).

KASUMI-1 cells = test: Kasumi cell proliferation CTG; format: cell-based; conditions: treated for 120 hours, CellTiter-Glo
Experimental: Cell culture: KASUMI-1 cells (ACC20, Leibniz-Institut DSMZ Deutsche Sammlung von Mikroorganismen und Zellkulturen GmbH) were grown in RPMI 1640 (31870-025, Gibco) supplemented with 20% fetal bovine serum (F1524, Gibco), 1 mM sodium pyruvate (11360-039, Gibco) and 2 mM Glutamax (35050-038, Gibco) in a 5% CO2 humidified incubator at 37° C.
Cell treatment and cell growth assessment: KASUMI-1 cells were seeded in ultra-low attachment 384-well culture plate (MS-9384WZ, SBio) at a final concentration of 250 000 cells/ml (35 μL/well) and treated for 120 hours with compounds inhibiting the METTL3/14 activity (10 serial semi-log dilutions, 30 μM as top concentration). Upon treatment, Kasumi1 cells were incubated for 10 min at RT with the CellTiter-Glo reagent (G7571, Promega). Measurement of the luminescence signal was performed on a microplate reader (Ensight, PerkinElmer).

METTL3/14, sequence (Q86U44 whole entry): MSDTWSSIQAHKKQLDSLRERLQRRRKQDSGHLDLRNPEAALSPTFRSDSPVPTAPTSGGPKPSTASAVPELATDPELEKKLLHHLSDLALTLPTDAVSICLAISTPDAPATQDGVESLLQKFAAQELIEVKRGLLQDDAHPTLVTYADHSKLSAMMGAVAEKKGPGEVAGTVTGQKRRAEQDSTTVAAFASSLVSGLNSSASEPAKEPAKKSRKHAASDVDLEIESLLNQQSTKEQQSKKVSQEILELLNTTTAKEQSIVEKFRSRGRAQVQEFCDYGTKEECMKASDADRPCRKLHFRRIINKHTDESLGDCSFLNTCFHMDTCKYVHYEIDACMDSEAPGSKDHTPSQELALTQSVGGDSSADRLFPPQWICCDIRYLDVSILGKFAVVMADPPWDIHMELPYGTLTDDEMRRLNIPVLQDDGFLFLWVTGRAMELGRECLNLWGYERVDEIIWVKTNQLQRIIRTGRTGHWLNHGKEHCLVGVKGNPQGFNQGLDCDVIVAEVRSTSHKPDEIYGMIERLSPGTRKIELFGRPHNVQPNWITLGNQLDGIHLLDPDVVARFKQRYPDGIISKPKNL
METTL3/14, sequence (Q9HCE5 whole entry partner): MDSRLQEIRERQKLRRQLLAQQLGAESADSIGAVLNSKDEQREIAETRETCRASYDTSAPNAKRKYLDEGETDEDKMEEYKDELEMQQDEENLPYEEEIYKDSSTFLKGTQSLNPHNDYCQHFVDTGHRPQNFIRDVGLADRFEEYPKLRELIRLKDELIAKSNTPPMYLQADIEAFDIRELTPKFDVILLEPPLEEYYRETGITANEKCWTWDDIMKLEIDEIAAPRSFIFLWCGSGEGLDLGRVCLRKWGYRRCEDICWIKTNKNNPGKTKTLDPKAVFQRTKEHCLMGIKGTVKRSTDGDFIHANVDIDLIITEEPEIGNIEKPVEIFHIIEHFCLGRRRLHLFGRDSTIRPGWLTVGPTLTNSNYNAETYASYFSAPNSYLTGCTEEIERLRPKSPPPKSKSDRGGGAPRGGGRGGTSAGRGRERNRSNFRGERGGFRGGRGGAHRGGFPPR

| IC50 (METTL3/14) [nM] | SMILES | IC50 (Caov-3 cells) [nM] | IC50 (KASUMI-1 cells; Homo sapiens, Kasumi 1, 120 h) [nM] | IC50 (KASUMI-1 cells) [nM] |
| --- | --- | --- | --- | --- |
| 6.1 | Nc1ncnc2c1c(Cl)cn2[C@@H]1C[C@H](c2ccc3cc(CNCC45CC(F)(C4)C5)[nH]c3c2)[C@@H](O)[C@H]1O [Example 30, (1R,2S,3R,5R)-3-{4-amino-5-chloro-7H-pyrrolo[2,3-d]pyrimidin-7-yl}-5-(2-{[({3-fluorobicyclo[1.1.1]pentan-1-yl}methyl)amino]methyl}-1H-indol-6-yl)cyclopentane-1,2-diol] | 556 | 1290 |  |
| 63.7 | Nc1ncnc2c1c(Br)cn2[C@@H]1C[C@H](c2ccc(CN3CCC4(CCC4)C3)cc2)[C@@H](O)[C@H]1O [Example 35, (1R,2S,3R,5R)-3-{4-amino-5-bromo-7H-pyrrolo[2,3-d]pyrimidin-7-yl}-5-[4-({6-azaspiro[3.4]octan-6-yl}methyl)phenyl]cyclopentane-1,2-diol] | 4560 | 4160 |  |
| 150 | Nc1ncnc2c1c(Br)cn2[C@@H]1C[C@H](c2ccc(CNCC3CCC3)cc2)[C@@H](O)[C@H]1O [Example 10, (1R,2S,3R,5R)-3-(4-amino-5-bromo-7H-pyrrolo[2,3-d]pyrimidin-7-yl)-5-(4-(((cyclobutylmethyl)amino)methyl)phenyl)cyclopentane-1,2-diol] | 6500 | 4400 |  |
| 103 | CC1(C)CCN(Cc2ccc([C@H]3C[C@@H](n4cc(Br)c5c(N)ncnc54)[C@H](O)[C@@H]3O)cc2)CC1 [Example 36, (1R,2S,3R,5R)-3-{4-amino-5-bromo-7H-pyrrolo[2,3-d]pyrimidin-7-yl}-5-{4-[(4,4-dimethylpiperidin-1-yl)methyl]phenyl}cyclopentane-1,2-diol] | 7750 | 5270 |  |
| 8.24 | Nc1ncnc2c1c(Br)cn2[C@@H]1C[C@H](c2ccc3[nH]c(CNCC45CC(F)(C4)C5)cc3c2)[C@@H](O)[C@H]1O [Example 31, (1R,2S,3R,5R)-3-{4-amino-5-bromo-7H-pyrrolo[2,3-d]pyrimidin-7-yl}-5-(2-{[{{3-fluorobicyclo[1.1.1]pentan-1-yl}methyl)amino]methyl}-1H-indol-5-yl)cyclopentane-1,2-diol] | 2650 | 1930 |  |
| 3010 | Nc1ncnc2c1c(Br)cn2[C@@H]1C[C@H](c2cccc(CNCC34CC(F)(C3)C4)c2)[C@@H](O)[C@H]1O [Example 39, (1R,2S,3R,5R)-3-{4-amino-5-bromo-7H-pyrrolo[2,3-d]pyrimidin-7-yl}-5-(3-{[{{3-fluorobicyclo[1.1.1]pentan-1-yl}methyl)amino]methyl}phenyl)cyclopentane-1,2-diol] | 4640 | 2390 |  |
| 42.6 | Nc1ncnc2c1c(Br)cn2[C@@H]1O[C@H](/C=C/CCCNCC2CCC2)[C@@H](O)[C@H]1O [Example 2, (2R,3R,4S,5R)-2-{4-amino-5-bromo-7H-pyrrolo[2,3-d]pyrimidin-7-yl}-5-[(1E)-5-[(cyclobutylmethyl)amino]pent-1-en-1-yl]oxolane-3,4-diol] | 3800 | 7300 |  |
| 23.9 | Nc1ncnc2c1c(Br)cn2[C@@H]1O[C@H](/C=C/CCCN2CCC3(CCC3)C2)[C@@H](O)[C@H]1O [Example 21] | 4570 | 4850 |  |
| 6.22 | Nc1ncnc2c1ccn2[C@@H]1C[C@H](c2ccc3cc(CN4CCC5(CCC5)C4)[nH]c3c2)[C@@H](O)[C@H]1O [Example 33, (1R,2S,3R,5R)-3-{4-amino-7H-pyrrolo[2,3-d]pyrimidin-7-yl}-5-[2-({6-azaspiro[3.4]octan-6-yl}methyl)-1H-indol-6-yl]cyclopentane-1,2-diol] | 276 | 1390 |  |
| 117 | Nc1ncnc2c1c(Br)cn2[C@@H]1C[C@H](c2cccc(CCNCC34CC(F)(C3)C4)c2)[C@@H](O)[C@H]1O [Example 37, (1R,2S,3R,5R)-3-{4-amino-5-bromo-7H-pyrrolo[2,3-d]pyrimidin-7-yl}-5-(3-{2-[{{3-fluorobicyclo[1.1.1]pentan-1-yl}methyl)amino]ethyl}phenyl)cyclopentane-1,2-diol] | 3260 | 2140 |  |
| 6.1 | Nc1ncnc2c1c(Br)cn2[C@@H]1C[C@H](c2ccc3cc(CN4CCC5(CCC5)C4)[nH]c3c2)[C@@H](O)[C@H]1O [Example 32, (1R,2S,3R,5R)-3-{4-amino-5-bromo-7H-pyrrolo[2,3-d]pyrimidin-7-yl}-5-[2-({6-azaspiro[3.4]octan-6-yl}methyl)-1H-indol-6-yl]cyclopentane-1,2-diol] | 551 | 1220 |  |
| 12.8 | Nc1ncnc2c1c(Br)cn2[C@H]1C[C@H](O)[C@@H](/C=C/CCCNCC23CC(F)(C2)C3)O1 [Example 22, (2R,3S,5R)-5-(4-amino-5-bromo-pyrrolo[2,3-d]pyrimidin-7-yl)-2-[(E)-5-[(3-fluoro-1-bicyclo[1.1.1]pentanyl)methylamino]pent-1-enyl]tetrahydrofuran-3-ol] | 2880 | 4280 |  |
| 46.6 | Nc1ncnc2c1c(Br)cn2[C@@H]1C[C@H](c2ccc(CCNCC34CC(F)(C3)C4)cc2)[C@@H](O)[C@H]1O [Example 12, (1R,2S,3R,5R)-3-{4-amino-5-bromo-7H-pyrrolo[2,3-d]pyrimidin-7-yl}-5-(4-{2-[({3-fluorobicyclo[1.1.1]pentan-1-yl}methyl)amino]ethyl}phenyl)cyclopentane-1,2-diol] | 8300 | 4900 |  |
|  | Nc1ncnc2c1c(Br)cn2[C@@H]1C[C@H](c2ccc3cc(CNCC45CC(F)(C4)C5)[nH]c3c2)[C@@H](O)[C@H]1O [Example 11, (1R,2S,3R,5R)-3-{4-amino-5-bromo-7H-pyrrolo[2,3-d]pyrimidin-7-yl}-5-(2-{[({3-fluorobicyclo[1.1.1]pentan-1-yl}methyl)amino]methyl}-1H-indol-6-yl)cyclopentane-1,2-diol] | 250 | 950 |  |
| 9.11 | Nc1ncnc2c1c(Br)cn2[C@@H]1C[C@H](c2ccc(CNCC34CC(F)(C3)C4)cc2)[C@@H](O)[C@H]1O [Example 34, (1R,2S,3R,5R)-3-{4-amino-5-bromo-7H-pyrrolo[2,3-d]pyrimidin-7-yl}-5-(4-{[({3-fluorobicyclo[1.1.1]pentan-1-yl}methyl)amino]methyl}phenyl)cyclopentane-1,2-diol] | 1880 | 2390 |  |
| 196 | Nc1ncnc2c1c(Br)cn2[C@@H]1O[C@H](/C=C/CCCNCc2ccccc2)[C@@H](O)[C@H]1O [Example 5, (2R,3R,4S,5R)-2-{4-amino-5-bromo-7H-pyrrolo[2,3-d]pyrimidin-7-yl}-5-[(1E)-5-(benzylamino)pent-1-en-1-yl]oxolane-3,4-diol] | 330 |  | 360 |
|  | Nc1ncnc2c1c(Br)cn2[C@@H]1O[C@H](/C=C/CCCNCC23CC(F)(C2)C3)[C@@H](O)[C@H]1O [Example 6] | 400 | 1600 |  |
| 6.1 | Nc1ncnc2c1c(F)cn2[C@@H]1C[C@H](c2ccc3cc(CNCC45CC(F)(C4)C5)[nH]c3c2)[C@@H](O)[C@H]1O [Example 29, (1R,2S,3R,5R)-3-{4-amino-5-fluoro-7H-pyrrolo[2,3-d]pyrimidin-7-yl}-5-(2-{[{{3-fluorobicyclo[1.1.1]pentan-1-yl}methyl)amino]methyl}-1H-indol-6-yl)cyclopentane-1,2-diol] | 1540 | 2850 |  |
